Results: PubChem BioAssay AID623863 (Southern Research Specialized Biocontainment Screening …, 2012)
The source made the active and inactive calls. How the calls were made is not given here.

Molecular target: Genome polyprotein (Dengue virus type 2 (strain 16681-PDK53)) (UniProt P29991)
Assay: Dengue-2 NS5 guanylylation inhibitors, dose response, biochemical, secondary assay (AID 623863)
Conditions: Dengue-2 NS5 guanylylation inhibition

Chain of Genome polyprotein (Dengue virus type 2 (strain 16681-PDK53)) (P29991 whole entry, looked up): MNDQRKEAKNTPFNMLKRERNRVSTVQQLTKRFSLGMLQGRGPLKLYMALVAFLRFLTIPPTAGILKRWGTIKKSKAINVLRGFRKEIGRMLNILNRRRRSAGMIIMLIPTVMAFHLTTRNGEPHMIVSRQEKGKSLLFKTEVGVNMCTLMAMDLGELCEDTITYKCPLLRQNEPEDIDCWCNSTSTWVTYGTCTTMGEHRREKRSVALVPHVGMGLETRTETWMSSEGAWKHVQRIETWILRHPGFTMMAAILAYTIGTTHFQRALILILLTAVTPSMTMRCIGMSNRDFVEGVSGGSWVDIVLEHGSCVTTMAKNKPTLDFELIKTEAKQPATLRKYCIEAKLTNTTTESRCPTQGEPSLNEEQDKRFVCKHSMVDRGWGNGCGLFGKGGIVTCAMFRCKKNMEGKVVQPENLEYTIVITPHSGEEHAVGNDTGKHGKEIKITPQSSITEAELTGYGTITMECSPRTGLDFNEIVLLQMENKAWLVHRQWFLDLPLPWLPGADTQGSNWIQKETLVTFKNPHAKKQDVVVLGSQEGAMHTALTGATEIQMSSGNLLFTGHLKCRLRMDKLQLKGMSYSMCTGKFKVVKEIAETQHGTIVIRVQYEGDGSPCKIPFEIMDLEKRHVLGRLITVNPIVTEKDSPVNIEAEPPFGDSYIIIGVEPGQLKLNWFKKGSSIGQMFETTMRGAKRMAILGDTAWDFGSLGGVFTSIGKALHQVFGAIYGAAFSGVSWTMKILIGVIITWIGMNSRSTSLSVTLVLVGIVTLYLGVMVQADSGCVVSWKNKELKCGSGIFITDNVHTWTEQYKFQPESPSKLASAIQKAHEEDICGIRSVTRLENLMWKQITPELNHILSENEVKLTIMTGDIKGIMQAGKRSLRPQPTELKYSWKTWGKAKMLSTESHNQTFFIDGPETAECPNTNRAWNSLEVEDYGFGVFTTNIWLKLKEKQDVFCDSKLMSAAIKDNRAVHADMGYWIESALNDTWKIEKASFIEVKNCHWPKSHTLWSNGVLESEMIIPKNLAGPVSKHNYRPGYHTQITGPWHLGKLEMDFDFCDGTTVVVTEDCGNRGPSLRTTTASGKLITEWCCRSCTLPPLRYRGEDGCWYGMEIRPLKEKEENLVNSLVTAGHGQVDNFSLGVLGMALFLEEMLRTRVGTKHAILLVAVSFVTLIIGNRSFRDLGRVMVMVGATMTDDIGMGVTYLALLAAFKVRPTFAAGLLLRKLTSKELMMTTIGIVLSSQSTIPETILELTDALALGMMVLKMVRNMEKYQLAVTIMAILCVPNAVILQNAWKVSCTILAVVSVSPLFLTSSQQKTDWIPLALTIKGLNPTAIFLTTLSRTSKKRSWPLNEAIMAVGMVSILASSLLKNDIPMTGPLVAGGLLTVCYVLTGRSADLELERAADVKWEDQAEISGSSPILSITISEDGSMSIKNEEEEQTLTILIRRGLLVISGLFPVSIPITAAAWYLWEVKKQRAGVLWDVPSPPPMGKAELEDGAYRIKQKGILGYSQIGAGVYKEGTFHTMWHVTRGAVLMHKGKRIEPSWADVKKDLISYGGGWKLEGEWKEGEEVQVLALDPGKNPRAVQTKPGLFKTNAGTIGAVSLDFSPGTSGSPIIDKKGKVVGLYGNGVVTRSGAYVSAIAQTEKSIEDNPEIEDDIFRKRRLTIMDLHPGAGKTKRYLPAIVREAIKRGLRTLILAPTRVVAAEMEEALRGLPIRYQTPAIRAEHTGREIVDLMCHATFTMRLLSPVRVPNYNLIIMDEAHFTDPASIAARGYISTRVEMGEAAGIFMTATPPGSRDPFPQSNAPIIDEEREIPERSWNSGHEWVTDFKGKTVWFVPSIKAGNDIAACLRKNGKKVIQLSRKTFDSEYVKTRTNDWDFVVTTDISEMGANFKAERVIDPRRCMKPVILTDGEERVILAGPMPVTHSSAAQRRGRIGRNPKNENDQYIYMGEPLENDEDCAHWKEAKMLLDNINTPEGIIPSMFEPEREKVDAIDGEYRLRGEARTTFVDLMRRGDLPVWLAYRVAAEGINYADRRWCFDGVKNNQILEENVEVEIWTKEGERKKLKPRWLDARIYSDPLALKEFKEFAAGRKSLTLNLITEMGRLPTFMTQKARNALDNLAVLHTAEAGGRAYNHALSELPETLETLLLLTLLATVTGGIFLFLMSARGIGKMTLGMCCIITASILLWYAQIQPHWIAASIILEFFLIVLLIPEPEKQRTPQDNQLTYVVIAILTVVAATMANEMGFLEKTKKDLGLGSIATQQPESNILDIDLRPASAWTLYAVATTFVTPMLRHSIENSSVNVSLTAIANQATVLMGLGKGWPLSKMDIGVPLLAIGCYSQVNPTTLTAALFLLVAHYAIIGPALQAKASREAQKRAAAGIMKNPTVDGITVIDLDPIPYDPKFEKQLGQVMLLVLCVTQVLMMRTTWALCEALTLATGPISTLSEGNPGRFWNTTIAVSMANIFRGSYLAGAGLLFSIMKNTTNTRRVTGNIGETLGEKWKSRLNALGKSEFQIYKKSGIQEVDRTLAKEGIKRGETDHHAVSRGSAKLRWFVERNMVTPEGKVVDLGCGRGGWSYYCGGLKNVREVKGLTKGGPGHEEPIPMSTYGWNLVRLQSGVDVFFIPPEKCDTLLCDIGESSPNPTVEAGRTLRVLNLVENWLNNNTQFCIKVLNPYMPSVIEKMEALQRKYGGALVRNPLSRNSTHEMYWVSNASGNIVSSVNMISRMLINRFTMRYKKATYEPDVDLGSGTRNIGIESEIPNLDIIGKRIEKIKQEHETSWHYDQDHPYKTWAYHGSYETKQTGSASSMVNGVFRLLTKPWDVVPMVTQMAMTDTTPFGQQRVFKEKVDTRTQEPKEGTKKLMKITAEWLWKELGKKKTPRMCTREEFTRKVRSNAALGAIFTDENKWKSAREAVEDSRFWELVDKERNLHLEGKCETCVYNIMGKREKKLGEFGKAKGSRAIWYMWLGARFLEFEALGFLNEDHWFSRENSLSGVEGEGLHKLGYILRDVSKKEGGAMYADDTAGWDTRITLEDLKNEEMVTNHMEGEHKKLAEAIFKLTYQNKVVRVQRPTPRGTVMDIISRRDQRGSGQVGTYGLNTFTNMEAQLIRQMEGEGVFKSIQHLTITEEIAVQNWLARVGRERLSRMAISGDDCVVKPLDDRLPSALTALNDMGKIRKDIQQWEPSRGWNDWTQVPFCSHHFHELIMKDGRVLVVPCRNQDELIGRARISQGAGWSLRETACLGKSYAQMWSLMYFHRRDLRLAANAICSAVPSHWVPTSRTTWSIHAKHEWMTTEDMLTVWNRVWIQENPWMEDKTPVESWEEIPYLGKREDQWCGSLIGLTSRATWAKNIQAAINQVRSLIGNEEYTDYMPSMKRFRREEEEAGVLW

Structure (SMILES) | IC50
O=C(O)CSc1cc(NS(=O)(=O)c2ccc(Cl)cc2)c2ccccc2c1O | 7.89 µM
O=C(O)CSc1cc(NS(=O)(=O)c2ccc(Br)cc2)c2ccccc2c1O | 2.37 µM
Cc1ccc(S(=O)(=O)Nc2cc(Sc3nc(C)cc(C)n3)c(O)c3ccccc23)cc1 | 46 µM
Cn1c(=O)c2[nH]c(-c3ccc(Cl)cc3)c(O)c2n(C)c1=O | 7.51 µM

Continued, values first:

IC50 | Structure (SMILES)
3.33 µM | O=C(O)CSc1cc(NS(=O)(=O)c2cccc([N+](=O)[O-])c2)c2ccccc2c1O
47.9 µM | O=S(=O)(Nc1cc(Sc2ccccc2)c(O)c2ccccc12)c1ccc(F)cc1
3.03 µM | O=[N+]([O-])c1cccc(S(=O)(=O)Nc2cc(SCc3ccccc3)c(O)c3ccccc23)c1
4.23 µM | O=S(=O)(Nc1cc(SCc2ccccc2)c(O)c2ccccc12)c1ccc(Cl)cc1
18.3 µM | O=[N+]([O-])c1cccc(S(=O)(=O)Nc2cc(Sc3nc4ccccc4s3)c(O)c3ccccc23)c1

Same assay, conditions: Dengue-2 NS5 guanylylation inhibition, at 50 µM (top of the series)

inhibition | Structure (SMILES)
inactive | O=C(O)CSc1cc(NS(=O)(=O)c2ccc(F)cc2)c2ccccc2c1O
inactive | Cc1ccc(S(=O)(=O)Nc2cc(SCC(=O)O)c(O)c3ccccc23)cc1
inactive | O=S(=O)(Nc1cc(Sc2ncn[nH]2)c(O)c2ccccc12)c1ccc(F)cc1
inactive | Cc1cc(F)ccc1S(=O)(=O)Nc1cc(SCC(=O)O)c(O)c2ccccc12
inactive | Cc1cc(C)c(S(=O)(=O)Nc2cc(SCC(=O)O)c(O)c3ccccc23)c(C)c1
